# Measurements reported in patent US11352345B2, “Cyclohexyl acid pyrazole azoles as LPA antagonists” (BRISTOL-MYERS SQUIBB COMPANY, priority 2017, dated 2022).
# Where a name gives a salt, the structure may show the parent alone.
# Target: T1, human LPA1 (Homo sapiens, UniProt Q92633)
# T1 construct: expressed in transfected cells; host or cells: Chinese hamster ovary (CHO) cells
# Test: LPA1 functional antagonist assay (calcium flux)
# Format: cell-based
# Settings: Chinese hamster ovary cells overexpressing human LPA1; calcium flux induced by 10 nM LPA; read-out: hLPA1 IC50
# Description: The effectiveness of compounds of the present invention as LPA1 inhibitors can be determined in an LPA1 functional antagonist assay as follows:
# Chinese hamster ovary cells overexpressing human LPA1 were plated overnight (15,000 cells/well) in poly-D-lysine coated 384-well microplates (Greiner bio-one, Cat #781946) in DMEM/F12 medium (Gibco, Cat #11039). Following overnight culture, cells were loaded with calcium indicator dye (AAT Bioquest Inc, Cat #34601) for 30 minutes at 37° C. The cells were then equilibrated to room temperature for 30 minutes before the assay. Test compounds solubilized in DMSO were transferred to 384 well non-binding surface plates (Corning, Cat #3575) using the Labcyte Echo acoustic dispense and diluted with assay buffer [1×HBSS with calcium/magnesium (Gibco Cat #14025-092), 20 mM HEPES (Gibco Cat #15630-080) and 0.1% fatty acid free BSA (Sigma Cat #A9205)] to a final concentration of 0.5% DMSO. Diluted compounds were added to the cells by FDSS6000 (Hamamatsu) at final concentrations ranging from 0.08 nM to 5 μM. and were then incubated for 20 min at room temperature at which time LPA (Avanti Polar Lipids Cat #857130C) was added at final concentrations of 10 nM to stimulate the cells.
# The compound IC50 value was defined as the concentration of test compound which inhibited 50% of the calcium flux induced by LPA alone. IC50 values were determined by fitting data to a 4-parameter logistic equation (GraphPad Prism, San Diego Calif.).
# T1 sequence (Q92633 whole entry): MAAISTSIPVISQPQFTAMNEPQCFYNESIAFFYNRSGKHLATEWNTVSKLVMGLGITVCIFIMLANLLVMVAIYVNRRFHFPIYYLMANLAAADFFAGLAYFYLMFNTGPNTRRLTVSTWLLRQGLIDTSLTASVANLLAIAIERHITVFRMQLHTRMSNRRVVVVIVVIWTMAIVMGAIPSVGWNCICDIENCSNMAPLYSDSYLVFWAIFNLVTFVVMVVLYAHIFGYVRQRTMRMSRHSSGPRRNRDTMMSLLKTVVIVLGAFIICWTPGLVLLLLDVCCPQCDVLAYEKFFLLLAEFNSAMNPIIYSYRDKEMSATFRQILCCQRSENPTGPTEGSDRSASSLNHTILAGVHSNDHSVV
row,Compound,IC50
1,"Cc1nc(-c2cnn(C)c2CNc2cnn(-c3ccccc3)n2)ncc1O[C@H]1CCC[C@H](C(=O)O)C1 [Example 1, (1S,3S)-3-((4-methyl-2-(1-methyl-5-(((2-phenyl-2H-1,2,3-triazol-4-yl)amino)methyl)-1H-pyrazol-4-yl)pyrimidin-5-yl)oxy)cyclohexane-1-carboxylicacid]",35 nM
2,"Cc1nc(-c2cnn(C)c2CNc2nc(C(C)C)ns2)ncc1O[C@H]1CCC[C@H](C(=O)O)C1 [Example 2, (1S,3S)-3-((2-(5-(((3-isopropyl-1,2,4-thiadiazol-5-yl)amino)methyl)-1-methyl-1H-pyrazol-4-yl)-4-methylpyrimidin-5-yl)oxy)cyclohexane-1-carboxylic acid]",1860 nM
3,"CCCc1nsc(Nc2c(-c3ncc(O[C@H]4CCC[C@H](C(=O)O)C4)c(C)n3)cnn2C)n1 [Example 3, (1S,3S)-3-((4-methyl-2-(1-methyl-5-((3-propyl-1,2,4-thiadiazol-5-yl)amino)-1H-pyrazol-4-yl)pyrimidin-5-yl)oxy)cyclohexane-1-carboxylic acid]",437 nM
4,"Cc1nc(-c2cnn(C)c2CNc2noc(CCC(C)C)n2)ncc1O[C@H]1CCC[C@H](C(=O)O)C1 [Example 4, (1S,3S)-3-((2-(5-(((5-isopentyl-1,2,4-oxadiazol-3-yl)amino)methyl)-1-methyl-1H-pyrazol-4-yl)-4-methylpyrimidin-5-yl)oxy)cyclohexane-1-carboxylic acid, bis TFA salt]",10 nM
5,Cc1nc(-c2cnn(C)c2Nc2nc(C3CC3)ns2)ncc1O[C@H]1CCC[C@H](C(=O)O)C1 [Example 5],341 nM
6,CCCCc1nc(NCc2c(-c3ncc(O[C@H]4CCC[C@H](C(=O)O)C4)c(C)n3)cnn2C)no1 [Example 6],31 nM
7,Cc1nc(-c2cnn(C)c2CNc2noc(CC3CCC3)n2)ncc1O[C@H]1CCC[C@H](C(=O)O)C1 [Example 7],9 nM
8,Cc1nc(-c2cnn(C)c2CNc2ncn(-c3ccccc3)n2)ncc1O[C@H]1CCC[C@H](C(=O)O)C1 [Example 8],91 nM
9,"Cc1nc(-c2cnn(C)c2Cn2cc(CC3CC3)nn2)ncc1O[C@H]1CCC[C@H](C(=O)O)C1 [Example 9, (1S,3S)-3-((2-(5-((4-(cyclopropylmethyl)-1H-1,2,3-triazol-1-yl)methyl)-1-methyl-1H-pyrazol-4-yl)-4-methylpyrimidin-5-yl)oxy)cyclohexane-1-carboxylic acid]",636 nM
10,CCc1nc(-c2cnn(C)c2Cn2cc(Cc3ccccc3)nn2)ncc1O[C@H]1CCC[C@H](C(=O)O)C1 [Example 10],26 nM
11,CCCCc1cn(Cc2c(-c3ncc(O[C@H]4CCC[C@H](C(=O)O)C4)c(CC)n3)cnn2C)nn1 [Example 11],399 nM
12,CCc1nc(-c2cnn(C)c2Cn2cc(CC3CC3)nn2)ncc1O[C@H]1CCC[C@H](C(=O)O)C1 [Example 12],230 nM
